For series [1], the system named is L1210. Description: Antitumor activity against mouse L1210 cells allografted in mouse assessed as survival at 180 mg/kg administered on day 1 followed by 9 injections with 1 day interval. More on the design: dose 180 mg/kg. The class given is functional, organism-based.
For series [2], the system named is L1210. In words: Antitumor activity against mouse L1210 cells allografted in mouse assessed as survival at 109 mg/kg administered on day 1 followed by 9 injections with 1 day interval. It counts as functional, organism-based. More on the design: dose 109 mg/kg.
Series [3] deals with L1210. Description: Antitumor activity against mouse L1210 cells allografted in mouse assessed as survival at 65 mg/kg administered on day 1 followed by 9 injections with 1 day interval. It counts as functional, organism-based. Details: dose 65 mg/kg.
For series [4], the system named is L1210. Description: Antitumor activity against mouse L1210 cells allografted in mouse assessed as increase in survival at 180 mg/kg administered on day 1 followed by 9 injections with 1 day interval relative to control. It counts as functional.
The subject of series [5] is L1210. Description: Antitumor activity against mouse L1210 cells allografted in mouse assessed as increase in survival at 109 mg/kg administered on day 1 followed by 9 injections with 1 day interval relative to control. The class given is functional.
In series [6] the test system is L1210. Description: Antitumor activity against mouse L1210 cells allografted in mouse assessed as increase in survival at 65 mg/kg administered on day 1 followed by 9 injections with 1 day interval relative to control. It counts as functional.
Series [7] concerns Mus musculus. In words: Toxicity in mouse L1210 cells allografted mouse assessed as reduction in body weight at 200 mg/kg administered on day 1 followed by 5 injections with 1 day interval. The class given is organism-based. Details: dose 200 mg/kg. Particulars: in vivo, 24 h.
For series [8], the system named is Mus musculus. Description: Toxicity in mouse L1210 cells allografted mouse assessed as reduction in body weight at 100 mg/kg administered on day 1 followed by 5 injections with 1 day interval. It counts as organism-based. More on the design: dose 100 mg/kg. To be noted: in vivo, 24 h.
Series [9] concerns L1210. In words: Antitumor activity against mouse L1210 cells allografted in mouse assessed as survival at 200 mg/kg administered on day 1 followed by 5 injections with 1 day interval. It counts as functional, organism-based. Details: dose 200 mg/kg.
Series [10] concerns L1210. In words: Antitumor activity against mouse L1210 cells allografted in mouse assessed as survival at 100 mg/kg administered on day 1 followed by 5 injections with 1 day interval. The class given is functional, organism-based. More on the design: dose 100 mg/kg.
In series [11] the test system is L1210. Description: Antitumor activity against mouse L1210 cells allografted in mouse assessed as increase in survival at 200 mg/kg administered on day 1 followed by 5 injections with 1 day interval relative to control. The class given is functional.
Series [12] concerns L1210. Description: Antitumor activity against mouse L1210 cells allografted in mouse assessed as increase in survival at 100 mg/kg administered on day 1 followed by 5 injections with 1 day interval relative to control. It counts as functional.
Series [13] has as its system Mus musculus. Description: Toxicity in mouse L1210 cells allografted BDF1 mouse assessed as reduction in body weight at 400 mg/kg administered on day 1 followed by 3 injections with 4 day interval. It counts as organism-based. Details: dose 400 mg/kg. Particulars: in vivo, 96 h.
In series [14] the test system is Mus musculus. Description: Toxicity in mouse L1210 cells allografted BDF1 mouse assessed as reduction in body weight at 200 mg/kg administered on day 1 followed by 3 injections with 4 day interval. The class given is organism-based. Details: dose 200 mg/kg. To be noted: in vivo, 96 h.
The test system of series [15] is Mus musculus. Description: Toxicity in mouse L1210 cells allografted BDF1 mouse assessed as reduction in body weight at 100 mg/kg administered on day 1 followed by 3 injections with 4 day interval. The class given is organism-based. Particulars: in vivo, 96 h. Details: dose 100 mg/kg.
For series [16], the system named is L1210. In words: Antitumor activity against mouse L1210 cells allografted in mouse assessed as survival at 400 mg/kg administered on day 1 followed by 3 injections with 4 day interval. It counts as functional, organism-based. Details: dose 400 mg/kg.
The test system of series [17] is L1210. Description: Antitumor activity against mouse L1210 cells allografted in mouse assessed as survival at 200 mg/kg administered on day 1 followed by 3 injections with 4 day interval. It counts as functional, organism-based. Details: dose 200 mg/kg.
Series [18] concerns L1210. In words: Antitumor activity against mouse L1210 cells allografted in mouse assessed as survival at 100 mg/kg administered on day 1 followed by 3 injections with 4 day interval. Details: dose 100 mg/kg. The class given is functional, organism-based.
Series [19] deals with L1210. In words: Antitumor activity against mouse L1210 cells allografted in mouse assessed as increase in survival at 400 mg/kg administered on day 1 followed by 3 injections with 4 day interval relative to control. It counts as functional.
The subject of series [20] is L1210. In words: Antitumor activity against mouse L1210 cells allografted in mouse assessed as increase in survival at 200 mg/kg administered on day 1 followed by 3 injections with 4 day interval relative to control. It counts as functional.
Series [21] deals with L1210. Description: Antitumor activity against mouse L1210 cells allografted in mouse assessed as increase in survival at 100 mg/kg administered on day 1 followed by 3 injections with 4 day interval relative to control. The class given is functional.
The subject of series [22] is Mus musculus. Description: Toxicity in mouse L1210 cells allografted BDF1 mouse assessed as reduction in body weight at 120 mg/kg administered on day 1 followed by 5 injections with 1 day interval. The class given is organism-based. More on the design: dose 120 mg/kg. To be noted: in vivo, 24 h.
For series [23], the system named is Mus musculus. Description: Toxicity in mouse L1210 cells allografted BDF1 mouse assessed as reduction in body weight at 80 mg/kg administered on day 1 followed by 5 injections with 1 day interval. It counts as organism-based. More on the design: dose 80 mg/kg. Particulars: in vivo, 24 h.
The subject of series [24] is Mus musculus. Description: Toxicity in mouse L1210 cells allografted BDF1 mouse assessed as reduction in body weight at 53 mg/kg administered on day 1 followed by 5 injections with 1 day interval. It counts as organism-based. Details: dose 53 mg/kg. To be noted: in vivo, 24 h.
Series [25] has as its system L1210. Description: Antitumor activity against mouse L1210 cells allografted in BDF1 mouse assessed as survival at 180 mg/kg administered on day 1 followed by 5 injections with 1 day interval. It counts as functional, organism-based. More on the design: dose 180 mg/kg.
Series [26] has as its system L1210. In words: Antitumor activity against mouse L1210 cells allografted in BDF1 mouse assessed as survival at 125 mg/kg administered on day 1 followed by 5 injections with 1 day interval. It counts as functional, organism-based. Details: dose 125 mg/kg.
Series [27] has as its system L1210. Description: Antitumor activity against mouse L1210 cells allografted in BDF1 mouse assessed as survival at 80 mg/kg administered on day 1 followed by 5 injections with 1 day interval. Details: dose 80 mg/kg. The class given is functional, organism-based.
The test system of series [28] is L1210. In words: Antitumor activity against mouse L1210 cells allografted in BDF1 mouse assessed as survival at 53 mg/kg administered on day 1 followed by 5 injections with 1 day interval. It counts as functional, organism-based. More on the design: dose 53 mg/kg.
In series [29] the test system is L1210. Description: Antitumor activity against mouse L1210 cells allografted in BDF1 mouse assessed as increase in survival at 180 mg/kg administered on day 1 followed by 5 injections with 1 day interval relative to control. The class given is functional.
For series [30], the system named is L1210. In words: Antitumor activity against mouse L1210 cells allografted in BDF1 mouse assessed as increase in survival at 125 mg/kg administered on day 1 followed by 5 injections with 1 day interval relative to control. It counts as functional.
Series [31] concerns L1210. In words: Antitumor activity against mouse L1210 cells allografted in BDF1 mouse assessed as increase in survival at 120 mg/kg administered on day 1 followed by 5 injections with 1 day interval relative to control. The class given is functional.
Series [32] relates to L1210. In words: Antitumor activity against mouse L1210 cells allografted in BDF1 mouse assessed as increase in survival at 80 mg/kg administered on day 1 followed by 5 injections with 1 day interval relative to control. It counts as functional.
The test system of series [33] is L1210. In words: Antitumor activity against mouse L1210 cells allografted in BDF1 mouse assessed as increase in survival at 53 mg/kg administered on day 1 followed by 5 injections with 1 day interval relative to control. It counts as functional.
Series [34] relates to Mus musculus. In words: Toxicity in mouse L1210 cells allografted BDF1 mouse assessed as reduction in body weight at 180 mg/kg administered on day 1 followed by 5 injections with 1 day interval. Particulars: in vivo, 24 h. Details: dose 180 mg/kg. It counts as organism-based.
For series [35], the system named is Mus musculus. Description: Toxicity in mouse L1210 cells allografted BDF1 mouse assessed as reduction in body weight at 125 mg/kg administered on day 1 followed by 5 injections with 1 day interval. It counts as organism-based. Details: dose 125 mg/kg. To be noted: in vivo, 24 h.

The text below walks through data of ChEMBL document CHEMBL3272269, “Synthesis and antileukemic activities of furanyl, pyranyl, and ribosyl derivatives of 4-(3,3-dimethyl-1-triazeno)imidazole-5-carboxamide and 3-(3,3-dimethyl-1-triazeno)pyrazole-4-carboxamide” (J Med Chem, 1979).

Structures are written as SMILES. Calls of active or inactive are those of the source. The calls are words filed in the database; no cut-off is given here.

The T/C is the result in the treated group divided by that in the control group, in per cent.

For `CN(C)/N=N/c1n[nH]cc1C(N)=O`, the outcome in series [1], in [2] and in series [3] was Active. Further, the figures for the T/C in [4], in series [5] and in series [6] were 134%, 176% and 142%, respectively.

On to `CN(C)/N=N/c1ncn(C2CCCO2)c1C(N)=O` (stereo unspecified), for which the Activity in [7] amounted to 4.3 g; in [8] it was 1.9 g. The outcome in series [9] and in series [10] was Active. For the same compound, the T/C in series [11] stood at 115%; in [12], 125%.

In the case of `CC(=O)OC[C@H]1O[C@@H](n2cnc(C(N)=O)c2/N=N/N(C)C)[C@H](OC(C)=O)[C@@H]1OC(C)=O`, the Activity in series [7] came to 0.9 g; in series [8], 0.3 g. The result in series [9] and in [10] was Active. Also, the figures for the T/C in [11] and in series [12] were 95% and 104%, respectively.

Take `CN(C)/N=N/c1nn(C2CCCCO2)cc1C(N)=O` (stereo unspecified): the Activity was 2.9 g in [13], 1 g in series [14] and 0.9 g in series [15]. For the same compound, the result in [16], in [17] and in series [18] was Active. Also, the T/C was 119% in series [19], 108% in series [20] and 108% in [21].

With `CN(C)/N=N/c1[nH]cnc1C(N)=O` [DACARBAZINE], the Activity in [22] is reported as 2.2 g; in series [23], 2 g; in [24] it was 0.8 g; in [34], 2.6 g; in [35], 2.1 g. Further, the result in series [25], in [26], in series [27] and in series [28] was Active. For the same compound, the T/C in series [29] is on record as 142%; in series [30] it was 147%; in [31] it was 157%; in [32] it was 147%; in series [33] it was 126%.
